Results reported in US6743429B2 (Sherbrooke University, priority 1999, dated 2004).
Where no end group is shown, it is not given here.

How the values were obtained:
sheep = assay: Haemodynamic parameters and baseline SRL after inhaled administration in sheep; assay type: in vivo; conditions: inhaled increasing doses (CGRP 0.1, 0.25, 0.5 and 1.0 mg/2 ml)
Description: (§1) Eighteen sheep with a mean weight of 35 kg (range: 24 to 52 kg) were used for this study. […] Ten of these animals were defined as non-allergic and 8 as allergic, based on the absence or presence of both early and late airway responses after a standard inhalation challenge with Ascaris suum antigen. All sheep were allowed a 4-week recovery period after the allergen challenge before experimentation began. For each of the procedures hereafter presented, the unsedated animals were restrained on a standard shopping cart in the prone position and their heads were immobilized. […]
Briefly, pleural pressure was estimated via the esophageal balloon catheter (filled with 1 ml of air), which was positioned 5 to 10 cm from the gastroesophageal junction. […] Lateral pressure in the trachea was measured with a sidehole catheter (inner diameter=2.5 mm) advanced through and positioned distal to the tip of the endotracheal tube. […] The transpulmonary pressure and flow signals were recorded on a Hewlett Packard (model 7754B, Mass. USA) multichannel recorder, which was linked to a PC 386 Personal Computer (IBM Equipment, Montreal, Quebec) for online calculation of mean RL by dividing the change in transpulmonary pressure by the change in flow at mid-tidal volume (Vt) (obtained by digital integration). […]

allergic sheep [1] = assay: Metacholine-induced non-specific airway responsiveness in allergic sheep; assay type: in vivo; conditions: inhaled 0.5 mg in 2 ml PBS
Description: as §1
(§2) The techniques used for investigating airway mechanics were again well-validated and standardized procedures (as is usually the case with large mammals). […] Lateral pressure in the trachea was measured with a sidehole catheter (inner diameter=2.5 mm) advanced through and positioned distal to the tip of the endotracheal tube. […] The transpulmonary pressure and flow signals were recorded on a Hewlett Packard (model 7754B, Mass. USA) multichannel recorder, which was linked to a PC 386 Personal Computer (IBM Equipment, Montreal, Quebec) for online calculation of mean RL by dividing the change in transpulmonary pressure by the change in flow at mid-tidal volume (Vt) (obtained by digital integration). […]

allergic sheep [2] = assay: Ascaris suum antigen-induced early and late increases in pulmonary resistance in sheep; assay type: in vivo
Description: as §1, §2

allergic guinea pigs = assay: Allergen (ovalbumin)-induced bronchospasm (PIP) in allergic guinea pigs; assay type: in vivo, guinea pig; conditions: CGRP receptor antagonist given 5 minutes before the allergen challenge
Procedure: Guinea pigs were anaesthetized with xylazine (20 mg/kg, i.m.) and ketamine hydrochloride (130 mg/kg, i.m.). The jugular vein and trachea were cannulated and animals were mechanically ventilated with a constant-volume rodent respirator (Havard, model 683) delivering a tidal volume of 5.5 ml/kg at a frequency of 60 cycles/min via the tracheal cannula. Airway resistance was measured by the overflow technique according to well-validated and standardized procedures. Briefly, ventilation overflow (i.e., the pulmonary insufflation pressure or PIP), was recorded at the side arm of the tracheal cannula by means of a differential pressure transducer (Gould P23 ID) connected to a Grass polygraph (model 7D). Airway responsiveness was assessed by measuring the changes in PIP following i.v. injections of the agonists. Changes in PIP, which were taken as an index of changed airway resistance, were measured and expressed in mm of mercury (mm Hg). Each agonist was injected through the jugular vein cannula in a volume of 100 μl followed by a washout with 200 μl of heparinized-saline (100 units/ml).
The resulting increase in PIP (bronchoconstriction) was compared to responses obtained in control animals i.e. in allergic guinea pigs, which received only saline solution 5 minutes before the i.v. injection of ovalbumin. […]

Molecule	heart rate (sheep)	mean arterial blood pressure (MAP) (sheep)	protection against metacholine-induced increase in airway resistance (allergic sheep [1]) [%]	effect on late phase bronchoconstriction to Ascaris suum antigen (allergic sheep [2]; aerosol 0.5 mg in 2 ml PBS pretreatment)	reduction of the peak of the early phase response to Ascaris suum antigen (allergic sheep [2]; aerosol 0.5 mg in 2 ml PBS, 20 minutes before antigen challenge) [%]	magnitude of the allergen-induced bronchospasm versus untreated animals (allergic guinea pigs)
CC(C)(C)NCC(O)c1ccc(O)c(CO)c1 (stereo not drawn) [salbutamol]	increase in heart rate	hypotension	65	does not affect	45	
hCGRP(8-37) (VTHRLAGLLSRSGGVVKNNFVPTNVGSKAF; ends and bridges not checked; UniProt P06881 90-119, looked up, fragment) [a CGRP receptor antagonist]						significant increase
